In US9745291B2, “PRMT5 inhibitors containing a dihydro- or tetrahydroisoquinoline and uses thereof” (Epizyme, Inc., priority 2012, dated 2017):
Where two headings read alike, the source gives them in different places.

Experiments:
Z-138 cell line = assay: Z-138 Proliferation Assay (Cell Titer Glo, 5 days); format: cell-based; details: Z-138 cells
Source text: [formula] Z-138 Proliferation Assay
Z-138 suspension cells were purchased from ATCC (American Type Culture Collection, Manassas, Va.). RPMI/Glutamax medium, penicillin-streptomycin, heat inactivated fetal bovine serum were purchased from Life Technologies, Grand Island, N.Y., USA. V-bottom polypropylene 384-well plates were purchased from Greiner Bio-One, Monroe, N.C., USA. Cell culture 384-well white opaque plates were purchased from Perkin Elmer, Waltham, Mass., USA. Cell-Titer Glo® was purchased from Promega Corporation, Madison, Wis., USA. SpectraMax M5 plate reader was purchased from Molecular Devices LLC, Sunnyvale, Calif., USA.
Z-138 suspension cells were maintained in growth medium (RPMI 1640 supplemented with 10% v/v heat inactivated fetal bovine serum and cultured at 37° C. under 5% CO2 Under assay conditions, cells were incubated in assay medium (RPMI 1640 supplemented with 10% v/v heat inactivated fetal bovine serum and 100 units/mL penicillin-streptomycin) at 37° C. under 5% CO2.
For the assessment of the effect of compounds on the proliferation of the Z-138 cell line, exponentially growing cells were plated in 384-well white opaque plates at a density of 10,000 cells/ml in a final volume of 50 μl of assay medium. A compound source plate was prepared by performing triplicate nine-point 3-fold serial dilutions in DMSO, beginning at 10 mM (final top concentration of compound in the assay was 20 μM and the DMSO was 0.2%). A 100 nL aliquot from the compound stock plate was added to its respective well in the cell plate. […] After addition of compounds, assay plates were incubated for 5 days at 37° C., 5% CO2, relative humidity >90%.
Cell viability was measured by quantitation of ATP present in the cell cultures, adding 35 μl of Cell Titer Glo® reagent to the cell plates. Luminescence was read in the SpectraMax M5 microplate reader. The concentration of compound inhibiting cell viability by 50% was determined using a 4-parametric fit of the normalized dose response curves.

PRMT5/MEP50 = PRMT5/MEP50 (Homo sapiens (Human), UniProt O14744); assay: PRMT5 Biochemical Assay (PRMT5/MEP50 enzyme assay on peptide substrate, 3H-SAM Flashplate)
[1] = tested on: symmetric di-methyl arginine in Z-138 cells; assay: Z-138 Methylation Assay (In Cell Western for symmetric di-methyl arginine and DNA content); format: cell-based; details: read-out: ICW EC50
Source text: [formula] Where top and bottom are the normally allowed to float, but may be fixed at 100 or 0 respectively in a 3-parameter fit. The Hill Coefficient normally allowed to float but may also be fixed at 1 in a 3-parameter fit. Y is the % inhibition and X is the compound concentration. Z-138 Methylation Assay
Z-138 suspension cells were purchased from ATCC (American Type Culture Collection, Manassas, Va.). RPMI/Glutamax medium, penicillin-streptomycin, heat inactivated fetal bovine serum, and D-PBS were purchased from Life Technologies, Grand Island, N.Y., USA. Odyssey blocking buffer, 800CW goat anti-rabbit IgG (H+L) antibody, and Licor Odyssey infrared scanner were purchased from Licor Biosciences, Lincoln, Nebr., USA. Symmetric di-methyl arginine antibody was purchased from EMD Millipore, Billerica, Mass., USA. 16% Paraformaldehyde was purchased from Electron Microscopy Sciences, Hatfield, Pa., USA.
Z-138 suspension cells were maintained in growth medium (RPMI 1640 supplemented with 10% v/v heat inactivated fetal bovine serum and 100 units/mL penicillin-streptomycin) and cultured at 37° C. under 5% CO2.
Cell Treatment, in Cell Western (ICW) for Detection of Symmetric Di-Methyl Arginine and DNA Content.
Z-138 cells were seeded in assay medium at a concentration of 50,000 cells per mL to a 384-well cell culture plate with 50 μL per well. Compound (100 nL) from 384 well source plates was added directly to 384 well cell plate. Plates were incubated at 37° C., 5% CO2 for 96 hours. After four days of incubation, 40 μL of cells from incubated plates were added to poly-D-lysine coated 384 well culture plates (BD Biosciences 356697). Plates were incubated at room temperature for 30 minutes then incubated at 37° C., 5% CO2 for 5 hours. After the incubation, 40 μL per well of 8% paraformaldehyde in PBS (16% paraformaldahyde was diluted to 8% in PBS) was added to each plate and incubated for 30 minutes. Plates were transferred to a Biotek 405 plate washer and washed 5 times with 100 μL per well of wash buffer (1×PBS with 0.1% Triton X-100 (v/v)). Next 30 μL per well of Odyssey blocking buffer were added to each plate and incubated 1 hour at room temperature. Blocking buffer was removed and 20 μL per well of primary antibody was added (symmetric di-methyl arginine diluted 1:100 in Odyssey buffer with 0.1% Tween 20 (v/v)) and plates were incubated overnight (16 hours) at 4° C. Plates were washed 5 times with 100 μL per well of wash buffer. Next 20 μL per well of secondary antibody was added (1:200 800CW goat anti-rabbit IgG (H+L) antibody, 1:1000 DRAQ5 (Biostatus limited) in Odyssey buffer with 0.1% Tween 20 (v/v)) and incubated for 1 hour at room temperature. The plates were washed 5 times with 100 μL per well wash buffer then 1 time with 100 μL per well of water. Plates were allowed to dry at room temperature then imaged on the Licor Odyssey machine which measures integrated intensity at 700 nm and 800 nm wavelengths. Both 700 and 800 channels were scanned.
First, the ratio for each well was determined by:
Each plate included fourteen control wells of DMSO only treatment (minimum inhibition) as well as fourteen control wells for maximum inhibition treated with 3 μM of a reference compound (Background wells). The average of the ratio values for each control type was calculated and used to determine the percent inhibition for each test well in the plate. Reference compound was serially diluted three-fold in DMSO for a total of nine test concentrations, beginning at 3 μM. Percent inhibition was determined and IC50 curves were generated using triplicate wells per concentration of compound. […]

[2] = PRMT5 biochemical assay, read-out: Biochemical IC50
[3] = Homo sapiens, Z-138, Z-138 cells

PRMT5/MEP50, sequence (O14744 other isoform, or with tags, fused parts or gaps): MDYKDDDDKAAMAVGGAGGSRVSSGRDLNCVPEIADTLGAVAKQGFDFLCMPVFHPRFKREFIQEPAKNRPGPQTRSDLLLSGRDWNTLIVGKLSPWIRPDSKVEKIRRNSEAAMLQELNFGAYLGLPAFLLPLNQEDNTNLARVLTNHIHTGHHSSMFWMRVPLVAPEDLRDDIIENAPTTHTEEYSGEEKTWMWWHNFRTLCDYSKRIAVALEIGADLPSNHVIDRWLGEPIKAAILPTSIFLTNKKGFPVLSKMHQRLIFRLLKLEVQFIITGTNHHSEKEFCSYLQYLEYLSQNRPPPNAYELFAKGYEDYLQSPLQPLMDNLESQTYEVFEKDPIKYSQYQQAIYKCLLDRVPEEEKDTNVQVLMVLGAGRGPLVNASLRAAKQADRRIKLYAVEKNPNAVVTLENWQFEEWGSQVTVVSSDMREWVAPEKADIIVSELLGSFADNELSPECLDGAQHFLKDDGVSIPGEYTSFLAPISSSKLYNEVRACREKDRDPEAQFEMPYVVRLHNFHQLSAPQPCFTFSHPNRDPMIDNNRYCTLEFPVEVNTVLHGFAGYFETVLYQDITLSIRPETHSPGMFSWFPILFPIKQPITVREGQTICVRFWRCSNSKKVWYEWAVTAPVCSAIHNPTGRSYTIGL
PRMT5/MEP50, sequence (Q9BQA1 other isoform, or with tags, fused parts or gaps partner): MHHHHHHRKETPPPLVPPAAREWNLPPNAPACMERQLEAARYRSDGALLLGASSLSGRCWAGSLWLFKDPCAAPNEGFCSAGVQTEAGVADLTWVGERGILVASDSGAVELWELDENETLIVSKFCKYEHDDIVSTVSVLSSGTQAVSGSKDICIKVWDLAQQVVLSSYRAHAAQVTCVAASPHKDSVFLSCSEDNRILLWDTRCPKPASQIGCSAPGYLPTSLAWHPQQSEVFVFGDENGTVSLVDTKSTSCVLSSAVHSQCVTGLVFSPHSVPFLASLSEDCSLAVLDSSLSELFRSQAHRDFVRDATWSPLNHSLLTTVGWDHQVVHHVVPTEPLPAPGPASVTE

IC50 (PRMT5/MEP50; [2]) [nM]	EC50 [1, 3] [nM]	Compound	EC50 (Z-138 cell line; Homo sapiens, Z-138, 120 h) [nM]	IC50 (PRMT5/MEP50) [nM]	EC50 (Z-138 cell line) [nM]	EC50 ([1]; Z-138 cells) [nM]
101 to 1000	101 to 1000	CN1CCCCC1c1ccccc1OCC(=O)NCC(O)CN1CCc2ccccc2C1 (stereo not drawn) [Compound 258]	1000 to 10000	–	–	–
101 to 1000	101 to 1000	Cn1ccnc1CCC(=O)NC[C@H](O)CN1CCc2ccccc2C1 [Compound 259]	> 20000	–	–	–
< 100	< 100	CC(C)N(C)CCN(C)S(=O)(=O)c1ccccc1OCC(=O)NC[C@@H](O)CN1CCc2ccccc2C1 [Compound 260]	1000 to 10000	–	–	–
101 to 1000	> 1000	CS(=O)(=O)Nc1cccc(OCC(=O)NC[C@@H](O)CN2CCc3ccccc3C2)c1C1CCCNC1 (stereo partly drawn) [Compound 265]	> 20000	–	–	–
101 to 1000	> 1000	CC(C)N1CCCC(c2c(NS(C)(=O)=O)cccc2OCC(=O)NC[C@@H](O)CN2CCc3ccccc3C2)C1 (stereo partly drawn) [Compound 266]	> 20000	–	–	–
101 to 1000	> 1000	O=C(COc1cccc(C(=O)NCCc2ncc[nH]2)c1)NC[C@@H](O)CN1CCc2ccccc2C1 [Compound 267]	> 20000	–	–	–
< 100	101 to 1000	CN(C)C1CCN(S(=O)(=O)c2ccccc2OCC(=O)NC[C@@H](O)CN2CCc3ccccc3C2)C1 (stereo partly drawn) [Compound 273]	10000 to 50000	–	–	–
< 100	< 100	CN1CC[C@H](CN(C)S(=O)(=O)c2ccccc2OCC(=O)NC[C@@H](O)CN2CCc3ccccc3C2)C1 [Compound 274]	101 to 1000	–	–	–
< 100	< 100	CN1CCN(c2cccc(OCC(=O)NC[C@@H](O)CN3CCc4ccccc4C3)c2S(=O)(=O)N(C)C)CC1 [Compound 275]	< 100	–	–	–
< 100	< 100	CC1CN(c2cccc(OCC(=O)NC[C@@H](O)CN3CCc4ccccc4C3)c2S(=O)(=O)N(C)C)CCN1 (stereo partly drawn) [Compound 276]	< 100	–	–	–
< 100	< 100	CCN1CCN(c2cccc(OCC(=O)NC[C@@H](O)CN3CCc4ccccc4C3)c2S(=O)(=O)N(C)C)CC1 [Compound 277]	< 100	–	–	–
< 100	< 100	CN(C)S(=O)(=O)c1c(OCC(=O)NC[C@@H](O)CN2CCc3ccccc3C2)cccc1N1CCN(C2CC2)CC1 [Compound 278]	< 100	–	–	–

Compound	IC50 (PRMT5/MEP50; [2]) [nM]	EC50 [1, 3] [nM]	EC50 (Z-138 cell line; Homo sapiens, Z-138, 120 h) [nM]	IC50 (PRMT5/MEP50) [nM]	EC50 (Z-138 cell line) [nM]	EC50 ([1]; Z-138 cells) [nM]
O=C(COc1ccccc1[C@H]1CCCNC1)NC[C@H](O)CN1CCc2ccccc2C1 [Compound 261]	< 100	101 to 1000	1000 to 10000	–	–	–
O=C(COc1ccccc1[C@@H]1CCCNC1)NC[C@H](O)CN1CCc2ccccc2C1 [Compound 262]	< 100	101 to 1000	10000 to 50000	–	–	–
O=C(COc1ccccc1[C@H]1CCCNC1)NC[C@@H](O)CN1CCc2ccccc2C1 [Compound 263]	101 to 1000	101 to 1000	10000 to 50000	–	–	–
O=C(COc1ccccc1[C@@H]1CCCNC1)NC[C@@H](O)CN1CCc2ccccc2C1 [Compound 264]	101 to 1000	> 1000	10000 to 50000	–	–	–
[2H]C1([2H])Cc2ccccc2C([2H])([2H])N1C[C@H](O)CNC(=O)COc1cccc2cccnc12 [Compound 269]	–	101 to 1000	> 5000	101 to 1000	–	–
O=C(COc1ccccc1N1CCNCC1)NC[C@H](O)CN1CCc2ccccc2C1 [Compound 271]	< 100	< 100	1000 to 10000	–	–	–
N-(3-(3,4-dihydroisoquinolin-2(1H)-yl)-2-hydroxypropyl)-2-((1-(1-methylpiperidin-4-yl)-1H-indazol-5-yl)oxy)acetamide [Compound 71]	< 100	–	–	–	> 20000	101 to 1000
N-(3-(3,4-dihydroisoquinolin-2(1H)-yl)-2-hydroxypropyl)-2-((1-(piperidin-4-yl)-1H-indazol-5-yl)oxy)acetamide [Compound 70]	< 100	–	–	–	> 20000	101 to 1000
